Source: US6706767B2, “Therapeutics for chemokine mediated diseases” (Chemokine Therapeutics Corporation, priority 2000, dated 2004)
Where two headings read alike, the source gives them in different places.

What was measured:
neutrophils [1] = assay: fMLP induced neutrophil activation (chemiluminescence); type: cell-based; conditions: 0.3 μg/ml and 1 μg/ml
Source text: (§1) In accordance with this aspect of the invention, tricyclic comounds such as phenanthrene-9,10-dione or corresponding salts may be used for the treatment of inflammatory diseases related to gout and arthritis.

neutrophils [2] = assay: fMLP induced neutrophil calcium level; type: cell-based; conditions: FIG. 6, after 15 seconds stimulation
THP-1 cells = assay: Inhibition of MCP-1 induced [Ca2+]i mobilization in Fura-2,AM loaded THP-1 cells; type: cell-based; conditions: Homo sapiens, 0.5 h, 30 min incubation
Procedure: (§2) Fura-2,AM loaded THP-1 cells were incubated with M163 for 30 min prior to induction of [Ca^2+]i mobilization by 20 nM MCP-1. Cells were also evaluated in the presence of fMLP (1 mM)/cytochalasin B (0.5 mM) or M163 (600 ng/ml) as positive and negative controls respectively. […] The values represent the mean +/− one S.D.

EAE mouse model = EAE mouse model of Multiple Sclerosis, clinical scores; type: in vivo; conditions: 1 mg/kg/day for 14 days, compared to control saline injection
Source text: Experimental autoimmune encephalomyelitis (EAE) is a CD4^+ Th1-mediated inflammatory demyelinating disease of the central nervous system (CNS) that serves as a model for multiple sclerosis. It has previously been disclosed that monocyte chemotactic protein-one (MCP-1) regulates acute and relapsing autoimmune encephalomyelitis, and that MCP-1 production in the central nervous system is correlated with relapsing EAE development. In this example, the EAE mouse model for MS is used, in which the disease is induced with Bordetella pertussis toxin (Claude C. A. et. al., (1975) Journal of Immunology 114(5): 1537-1540 and Hosseimi, H. et. al., (2000) Neurology 54 (7): A166, An abstract presented in April 2000 on “Inhibition of proteosome prevents clinical signs in an experimental model of Multiple Sclerosis”). A dose of 1 mg/kg/day in a volume of 100 μl saline was given to animals for 14 days, and individual animals were observed daily and graded accordingly to their clinical severity as follows: grade 0, no abnormality; grade 1, limp tail; grade 2, limp tail and partial hind limb weakness; grade 3, complete hind limb paralysis; grade 4, complete hind limb paralysis and fore limb weakness; grade 5, death.

THP-1 cells and T-cells = assay: Cytoplasmic calcium rise induced by the compound itself; type: cell-based; conditions: analogous to native MCP-1
Procedure: as §2

CXCR1 = biological target: T1, CXCR1 (Homo sapiens, UniProt P25024); assay: Inhibition of IL-8 binding to CXCR1; conditions: FIG. 8
T1 sequence (P25024 1-350): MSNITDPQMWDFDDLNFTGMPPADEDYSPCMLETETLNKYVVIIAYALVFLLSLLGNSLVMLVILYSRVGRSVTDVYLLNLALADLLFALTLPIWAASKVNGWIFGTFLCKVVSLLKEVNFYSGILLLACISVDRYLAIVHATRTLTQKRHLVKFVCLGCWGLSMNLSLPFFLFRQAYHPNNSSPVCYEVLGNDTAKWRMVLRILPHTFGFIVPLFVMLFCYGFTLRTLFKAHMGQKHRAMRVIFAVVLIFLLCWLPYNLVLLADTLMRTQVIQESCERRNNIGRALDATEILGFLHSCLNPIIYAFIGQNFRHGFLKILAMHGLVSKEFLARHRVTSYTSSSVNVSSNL

MCP-1 receptor (CCR-2) = MCP-1 receptor (CCR-2) (Homo sapiens, UniProt P41597); assay: Inhibition of I125-labeled MCP-1 binding to the MCP-1 receptor (CCR-2); conditions: I125 labeled MCP-1 as competitor; FIG. 1
Procedure: A dose response of phenanthrene-9,10-dione at different concentration in comparison to MCP-1.
This example discloses the ability of tricyclic compounds of the invention, such as phenanthrene-9,10-dione (compound 1), for inhibiting binding to the MCP-1 receptor (CCR-2). The binding studies were conducted using I^125 labeled MCP-1 as competitor. […] In FIG. 1, the results of competition studies are plotted using a standard scatchard plot analysis.

neutrophils [3] = assay: CPPD crystal induced neutrophil activation (chemiluminescence); type: cell-based; conditions: 0.3 μg/ml and 1 μg/ml
Source text: as §1

human neutrophils = assay: Inhibition of IL-8 induced [Ca2+]i mobilization in human neutrophils; type: cell-based; conditions: 30 minutes incubation, 10 nM IL-8
Procedure: Freshly isolated neutrophils loaded with Fura-2,AM were incubated with phenanthrene-9,10-dione for 30 minutes prior to induction of [Ca^2+]i mobilization by 10 nM IL-8. Values represent the increase in mobilization over basal levels (wavelength averaging at approximately 176 nM) and are the mean +/− one S.D. of n=3 experiments.

CXCR2 = biological target: T2, CXCR2 (Homo sapiens, UniProt P25025); assay: Inhibition of IL-8 binding to CXCR2; conditions: FIG. 8
T2 sequence (P25025 1-360): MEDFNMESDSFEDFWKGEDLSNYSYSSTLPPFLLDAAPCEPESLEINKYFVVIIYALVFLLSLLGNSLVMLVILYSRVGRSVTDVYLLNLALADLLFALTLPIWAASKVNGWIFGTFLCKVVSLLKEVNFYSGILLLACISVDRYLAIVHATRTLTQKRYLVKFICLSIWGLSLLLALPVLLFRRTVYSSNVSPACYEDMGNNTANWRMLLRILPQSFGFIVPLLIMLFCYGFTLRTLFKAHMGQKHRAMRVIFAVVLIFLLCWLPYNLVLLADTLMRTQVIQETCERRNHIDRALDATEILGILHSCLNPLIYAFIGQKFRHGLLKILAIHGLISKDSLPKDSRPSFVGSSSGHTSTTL

Sequence of MCP-1 receptor (CCR-2) (P41597 whole entry, species assumed): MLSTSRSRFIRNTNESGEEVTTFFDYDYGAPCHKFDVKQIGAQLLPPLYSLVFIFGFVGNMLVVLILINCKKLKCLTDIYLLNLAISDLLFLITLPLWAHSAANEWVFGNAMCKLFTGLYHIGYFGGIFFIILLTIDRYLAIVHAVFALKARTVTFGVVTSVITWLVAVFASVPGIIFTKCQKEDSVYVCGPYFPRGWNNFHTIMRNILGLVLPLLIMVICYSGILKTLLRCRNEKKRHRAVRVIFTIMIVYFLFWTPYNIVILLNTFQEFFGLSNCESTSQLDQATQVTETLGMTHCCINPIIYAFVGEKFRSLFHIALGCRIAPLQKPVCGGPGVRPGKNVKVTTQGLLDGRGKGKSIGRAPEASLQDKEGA

## O=C1C(=O)c2ccccc2-c2ccccc21 [phenanthrene-9,10-dione]
Neutrophils [1]
  inhibition of fMLP induced neutrophil activation: strong inhibition
Neutrophils [2]
  inhibition of intracellular calcium ion release: effective inhibitor of intracellular calcium ion release
THP-1 cells; 20 nM MCP-1, read-out: IC50, MCP-1 associated induction of [Ca2+]i mobilization
  IC50: 0.25 µg/mL
THP-1 cells; 20 nM MCP-1, value in parentheses, read-out: IC50, MCP-1 associated induction of [Ca2+]i mobilization
  IC50: 120 nM
EAE mouse model
  effect on clinical scores: beneficial effect on the clinical scores
THP-1 cells and T-cells
  effect on cytoplasmic calcium concentration: induced a rapid, transient rise in cytoplasmic calcium concentration
CXCR1
  inhibitory effect on the binding of IL-8 to CXCR1: inhibitory effect
MCP-1 receptor (CCR-2)
  inhibitory effect on the binding of MCP-1 to CCR-2: inhibitory effect
Neutrophils [3]
  inhibition of CPPD crystal induced neutrophil activation: strong inhibition
Human neutrophils; 3 μM
  suppression of calcium level (IL-8 induced [Ca2+]i mobilization): about 63%
Human neutrophils; Neutrophil, 0.5 h
  IC50: 3000 nM
CXCR2
  inhibitory effect on the binding of IL-8 to CXCR2: inhibitory effect
